In patent publication US20240024302A1, “SOLUBLE EPOXIDE HYDROLASE (sEH) INHIBITORS AND DUAL COX/sEH INHIBITORS FOR THE TREATMENT OF ARRHYTHMOGENIC CARDIOMYOPATHY” (BETH ISRAEL DEACONESS MEDICAL CENTER, INC., priority 2020, published 2024):

Key:
[1] = Mouse PK, single oral gavage; conditions: mouse, in vivo, po, 0.3 mg/kg, single dose 0.3 mg/kg; for AUC: Mouse AUC, 20% PEG400 in oleic acid-rich triglyceride; for AUC / Cmax / Tmax: oral gavage; for Cmax: Mouse Cmax; for half-life: Mouse T1/2, oral gavage; for Tmax: Mouse Tmax
[2] = Rat PK, single oral gavage; format: in vivo; conditions: rat, in vivo, single dose 0.1 mg/kg; for AUC: PEG 300; for half-life: read-out: Rat T1/2 (converted)
[3] = test system: Neonatal rat ventricular myocytes (NRVM) expressing 2157del2 JUP; experiment: Immunofluorescence of junction proteins in ACM in vitro model; format: cell-based; conditions: Jup2157del2 myocytes; 2.017 500 nM, 1.045 1 μM; concentration not given for 1,002 and 3.023
Procedure: Neonatal rat ventricular myocytes (NRVM) were isolated from the ventricles of 1-day-old Wistar rat pups and plated on collagen-coated plastic chambers. 24 hours following seeding, the cells were transfected with an adenoviral construct expressing a mutant form of plakoglobin known to cause arrhythmogenic cardiomyopathy in patients (2157del2 JUP). […] Non-transfected cultures and cultures transfected with the adenoviral construct only served as negative and positive controls, respectively.
Immunofluorescence: Cell cultures were fixed with 4% paraformaldehyde and prepared for immunofluorescence analysis as previously described (1). […] Cy3-conjugated goat anti-mouse and anti-rabbit antibodies (Jackson Immunolabs) were used as secondary antibodies and DAPI was used to visualize the nuclei. Immunostained preparations were visualized by confocal microscopy and changes in spatial distribution of signal were assessed qualitatively.

SMILES | AUC [1] | Cmax [1] | half-life [1] | Tmax [1] | Cmax [2] | Tmax [2] | AUC [2] | half-life [2] | ACM disease features overall (plakoglobin, Cx43, pRelA/p65, TUNEL), sEH inhibitors [3]
O=C(Nc1ccc(C(F)(F)F)cc1)NC1CCN(C(=O)c2ccoc2)CC1 | 0.794 µM·h | 28 nM | 4.2 h | 7.3 h | 308 ± 16 nM | 3.4 ± 0.3 h | 3.55 ± 0.271 µM·h | 4.4 ± 0.4 h | –
O=C(Nc1ccc(C(F)(F)F)cc1)NC1CCN(C(=O)c2cc[nH]c2)CC1 | 0.083 µM·h | 11 nM | 2 h | 2.8 h | – | – | – | – | –
Cc1occc1C(=O)N1CCC(NC(=O)Nc2ccc(OC(F)(F)F)cc2)CC1 | 9.99 µM·h | 409 nM | 6.2 h | 9 h | 133 ± 4 nM | 2.3 ± 0.4 h | 1.08 ± 0.089 µM·h | 6 ± 0.7 h | –
CC[C@H](C)C(=O)N1CCC(NC(=O)Nc2ccc(OC(F)(F)F)c(F)c2)CC1 [Compound 1.002] | – | – | – | – | – | – | – | – | showed similar results
O=C(Nc1ccc(C(F)(F)F)cc1)NC1CCN(C(=O)C2=COCC2)CC1 | 0.875 µM·h | 78 nM | 2.8 h | 4.1 h | – | – | – | – | –
O=C(Nc1ccc(OC(F)(F)F)cc1)NC1CCN(C(=O)c2ccoc2)CC1 | 2.93 µM·h | 146 nM | 5.1 h | 7.3 h | – | – | – | – | –
O=C(Nc1ccc(C(F)(F)F)cc1)NC1CCN(C(=O)C2(C(F)(F)F)CC2)CC1 | – | 6490 nM | 356 h | 4.7 h | – | – | – | – | –
O=C(Nc1ccc(OC(F)(F)F)cc1)NC1CCN(C(=O)[C@@H]2CCOC2)CC1 | 0.656 µM·h | 50 nM | 3.4 h | 6.2 h | – | – | – | – | –
Cc1ccoc1C(=O)N1CCC(NC(=O)Nc2ccc(OC(F)(F)F)cc2)CC1 | 4.56 µM·h | 294 nM | 3.9 h | 5.7 h | – | – | – | – | –
O=C(Nc1ccc(OC(F)(F)F)cc1)NC1CCN(C(=O)C2CCCOC2)CC1 (stereo not drawn) | 0.634 µM·h | 31 nM | 5.3 h | 7.6 h | – | – | – | – | –
O=C(Nc1ccc(C(F)(F)F)cc1)NC1CCN(C(=O)C2CCOC2)CC1 (stereo not drawn) | 4.73 µM·h | 342 nM | 6.9 h | 6.8 h | – | – | – | – | –

Further lines, with some results ahead:

AUC [1] | Cmax [1] | half-life [1] | Tmax [1] | Cmax [2] | Tmax [2] | AUC [2] | half-life [2] | SMILES | ACM disease features overall (plakoglobin, Cx43, pRelA/p65, TUNEL), sEH inhibitors [3]
0.0994 ± 0.0001 µM·h | 24700 nM | 1050 h | 6 h | 43 ± 3 nM | 2.6 ± 0.2 h | 0.328 ± 0.018 µM·h | 3.7 ± 0.5 h | O=C(Nc1ccc(OC(F)(F)F)c(F)c1)NC1CCN(C(=O)C2CCCOC2)CC1 (stereo not drawn) | –
0.0973 ± 0.0001 µM·h | 2550 nM | 174 h | 3.7 h | 84 ± 6 nM | 2.9 ± 0.3 h | 0.869 ± 0.127 µM·h | 3.8 ± 0.6 h | O=C(Nc1ccc(OC(F)(F)F)c(F)c1)NC1CCN(C(=O)[C@@H]2CCOC2)CC1 | –
≥ 0.0999 µM·h | – | – | – | 105 ± 16 nM | 3.7 ± 0.5 h | 1.33 ± 0.093 µM·h | 4.7 ± 0.8 h | CCOC(=O)N1CCC(NC(=O)Nc2ccc(OC(F)(F)F)c(F)c2)CC1 | –
9.65 µM·h | 518 nM | 6.2 h | 7.9 h | 38 ± 3 nM | 1.8 ± 0.2 h | 0.212 ± 0.022 µM·h | 2.4 ± 0.3 h | CC(C)C(=O)N1CCC(NC(=O)Nc2ccc(C(F)(F)F)c(F)c2)CC1 | –
0.0982 ± 0.0001 µM·h | – | – | – | 40 ± 2 nM | 2.9 ± 0.3 h | 0.327 ± 0.032 µM·h | 3.6 ± 0.6 h | O=C(Nc1ccc(OC(F)(F)F)c(F)c1)NC1CCN(C(=O)N2CCOCC2)CC1 | –
– | – | – | – | 17 ± 2 nM | 1.6 ± 0.1 h | 0.066 ± 0.011 µM·h | 1.2 ± 0.2 h | CC(C)C(=O)N1CCC(CC(=O)Nc2ccc(OC(F)(F)F)c(F)c2)CC1 | –
0.0985 ± 0.0001 µM·h | – | – | – | 103 ± 8 nM | 3.1 ± 0.2 h | 1.24 ± 0.063 µM·h | 6.2 ± 0.4 h | O=C(Nc1ccc(OC(F)(F)F)c(F)c1)NC1CCN(C(=O)C2CCOCC2)CC1 | –
4.78 µM·h | 162 nM | 4.8 h | 5.9 h | 84 ± 5 nM | 2.8 ± 0.3 h | 0.637 ± 0.085 µM·h | 2.7 ± 0.4 h | CC(C)C(=O)N1CCC(NC(=O)Nc2ccc(OC(F)(F)F)c(F)c2)CC1 | –
